The text below walks through data of patent US20230134843A1, “TREATMENT OF STEM CELL DEFICIENCY” (OSPEDALE SAN RAFFAELE S.R.L., priority 2020, published 2023).

Entries after “also recorded” stand apart in the source; their conditions may differ.

One assay has as its system CD45+ cells. Nature of the assay: CD45+ inflammatory cell infiltration by immunohistochemistry, acute GVHD mouse model. The format is in vivo, mice. The settings on record: Fosaprepitant 10 mg/mL topically six times a day, day 29. The method, then: (§1) 10-week-old male BALB/C and C57BL/6N mice (Charles River Laboratory, Lecco, Italy) were used for all the experiments (n=5/each group). All mice were free from ocular surface disease at baseline. The housing conditions were controlled (temperature 22° C., light from 07:00-19:00, humidity 50%-60%), and fresh food and water were freely available. The animals were monitored 3 times per week for 28 days post-transplantation for in vivo slit-lamp microscopy imaging, ocular surface score and systemic GVHD score (FIG. 11A). Carbon dioxide inhalation and subsequent cervical dislocation were applied to euthanize the animals. All the experiments were approved by the Animal Care and Use Committee of the IRCCS San Raffaele Scientific Institute, in accordance with the ARVO Statement for the Use of Animals in Ophthalmic and Vision Research.
(§2) Allogenic BMT was conducted using the C57BL/6N and BALB/c mice as transplant donors and recipients, respectively. The recipient mice received total body irradiation (TBI) (900 cGy divided in two fractions) from a Cs source 1 day before the transplantation. The donor C57BL/6N mice were sacrificed on dry ice and they femur and spleen were harvested. The bones were gently crushed manually using a sterile stick, and bone marrow (BM) cells were released by mixing the fragments of bones with RPMI. The suspension of BM cells was filtered to remove the impurities inside. The spleens were also gently crushed into a cell suspension and filtered. Inventors suspended the BM cells and splenic cells with RPMI and adjusted the density of cells to 1×10^6/[…] and 2×10^6/[…], respectively. […]
(§3) Mice were sacrificed 28 days after BM transplantation (Day 29 post irradiation) by carbon dioxide inhalation. […] Following three washes with PBS-T, sections were incubated in anti-goat HRP for 15 minutes and then detected with a goat-on-rodent HRP-Polymer Kit (Biocare Medical). Primary antibody labeling was detected using brown DAB substrate (Vector Laboratories, Burlingame, Calif., USA). […]

Another assay relates to CD3+ cells. The experiment in a line: CD3+ cell (T cell) infiltration by immunohistochemistry, acute GVHD mouse model. The format is in vivo, mice. The settings on record: Fosaprepitant 10 mg/mL topically six times a day; day 29; p<0.001. The method, then: as §1, §2, §3

As to `C[C@@H](O[C@H]1OCCN(Cc2nc(=O)n(P(=O)(O)O)[nH]2)[C@H]1c1ccc(F)cc1)c1cc(C(F)(F)F)cc(C(F)(F)F)c1` [Fosaprepitant, [3-{[(2R,3S)-2-[(1R)-1-[3,5-bis(trifluoromethyl)phenyl]ethoxy]-3-(4-fluorophenyl)morpholin-4-yl]methyl}-5-oxo-2H-1,2,4-triazol-1-yl]phosphonic acid], the “CD45+ cell infiltration in the lacrimal gland” value in the assay on CD45+ cells (among all groups) was “no significant difference”. Moreover, the “CD45+ cell infiltration in the conjunctiva” value in the assay on CD45+ cells (p<0.0001) is listed as “significantly reduced”. Also, the “CD45+ cell infiltration in the cornea” value with CD45+ cells (p<0.01) is “significantly reduced”. For the same molecule, in the assay with CD3+ cells, the “CD3+ cells infiltrating the conjunctiva” value is listed as “reduced; also recorded: significantly decreased”, the “CD3+ cells infiltrating the cornea” value is reported as “reduced; also recorded: significantly decreased” and the “CD3+ cells infiltrating the lacrimal gland” value was “reduced; also recorded: significantly decreased”.
